Experiment: xn = mol fraction of the nth substance listed
Settings: 101 kPa, Liquid, Vibrating tube method

CCC(=O)O [propanoic acid] + CCC(C)O
mass density [kg/m3]
Settings | 283.15 K | 293.15 K | 303.15 K | 313.15 K | 323.15 K | 333.15 K
x1 = 0.082 | 819.64 | 815.41 | 811.1 | 802.26 | 793.05 | 783.48
x1 = 0.1717 | 834.26 | 829.91 | 825.51 | 816.5 | 807.2 | 797.57
x1 = 0.2442 | 846.52 | 842.08 | 837.6 | 828.46 | 819.08 | 809.41
x1 = 0.32 | 859.63 | 855.12 | 850.56 | 841.3 | 831.82 | 822.11
x1 = 0.4004 | 873.99 | 869.39 | 864.76 | 855.37 | 845.79 | 836
x1 = 0.4773 | 887.98 | 883.3 | 878.59 | 869.08 | 859.4 | 849.54
x1 = 0.5609 | 903.61 | 898.85 | 894.07 | 884.41 | 874.61 | 864.65
x1 = 0.6404 | 918.81 | 913.96 | 909.09 | 899.28 | 889.36 | 879.3
x1 = 0.7186 | 934.19 | 929.25 | 924.29 | 914.32 | 904.27 | 894.07
x1 = 0.8009 | 950.85 | 945.79 | 940.74 | 930.57 | 920.34 | 910.02
x1 = 0.8776 | 966.89 | 961.72 | 956.55 | 946.17 | 935.75 | 925.26
x1 = 0.9593 | 984.54 | 979.23 | 973.9 | 963.26 | 952.61 | 941.92

CC(=O)O [acetic acid] + CCC(C)O
mass density [kg/m3]
Settings | 293.15 K | 298.15 K | 303.15 K | 313.15 K | 323.15 K | 333.15 K
x1 = 0.0822 | 819.04 | 814.82 | 810.53 | 801.69 | 792.5 | 782.93
x1 = 0.1628 | 832.16 | 827.83 | 823.44 | 814.46 | 805.17 | 795.54
x1 = 0.2395 | 845.65 | 841.23 | 836.76 | 827.62 | 818.22 | 808.51
x1 = 0.321 | 861.12 | 856.58 | 852 | 842.7 | 833.16 | 823.36
x1 = 0.3979 | 876.8 | 872.17 | 867.49 | 858.02 | 848.33 | 838.39
x1 = 0.4759 | 893.89 | 889.16 | 884.37 | 874.69 | 864.83 | 854.77
x1 = 0.5611 | 914 | 909.12 | 904.22 | 894.32 | 884.26 | 874
x1 = 0.6399 | 934.04 | 929.04 | 924.01 | 913.87 | 903.62 | 893.19
x1 = 0.7197 | 955.97 | 950.84 | 945.68 | 935.3 | 924.81 | 914.19
x1 = 0.8003 | 980.06 | 974.78 | 969.49 | 958.84 | 948.1 | 937.26
x1 = 0.8796 | 1005.8 | 1000.35 | 994.91 | 983.99 | 973.01 | 961.97
x1 = 0.9365 | 1025.67 | 1020.12 | 1014.58 | 1003.46 | 992.31 | 981.11
x1 = 0.9586 | 1033.71 | 1028.12 | 1022.54 | 1011.36 | 1000.14 | 988.87

CC(C)CO [2-methyl-1-propanol] + CC(=O)O
mass density [kg/m3]
Settings | 293.15 K | 298.15 K | 303.15 K | 313.15 K | 323.15 K | 333.15 K
x2 = 0.0813 | 814.94 | 810.95 | 806.92 | 798.73 | 790.31 | 781.64
x2 = 0.1574 | 827.82 | 823.71 | 819.56 | 811.15 | 802.54 | 793.68
x2 = 0.2405 | 842.93 | 838.69 | 834.42 | 825.76 | 816.92 | 807.86
x2 = 0.319 | 858.14 | 853.78 | 849.39 | 840.5 | 831.45 | 822.19
x2 = 0.4018 | 875.36 | 870.87 | 866.35 | 857.21 | 847.92 | 838.44
x2 = 0.4803 | 892.9 | 888.27 | 883.63 | 874.24 | 864.7 | 855.01
x2 = 0.5599 | 911.99 | 907.22 | 902.44 | 892.78 | 883 | 873.07
x2 = 0.6396 | 932.48 | 927.56 | 922.63 | 912.7 | 902.65 | 892.49
x2 = 0.7199 | 954.87 | 949.79 | 944.71 | 934.47 | 924.16 | 913.72
x2 = 0.7998 | 979.04 | 973.8 | 968.56 | 958.02 | 947.4 | 936.71
x2 = 0.8786 | 1004.98 | 999.57 | 994.16 | 983.31 | 972.4 | 961.43
x2 = 0.9595 | 1033.93 | 1028.35 | 1022.77 | 1011.59 | 1000.4 | 989.16

CCC(=O)O [propanoic acid] + CC(C)CO
mass density [kg/m3]
Settings | 283.15 K | 293.15 K | 303.15 K | 313.15 K | 323.15 K | 333.15 K
x1 = 0.0803 | 815.48 | 811.49 | 807.47 | 799.27 | 790.86 | 782.19
x1 = 0.1616 | 829.5 | 825.39 | 821.25 | 812.83 | 804.2 | 795.34
x1 = 0.2482 | 844.79 | 840.55 | 836.28 | 827.63 | 818.79 | 809.74
x1 = 0.3212 | 857.93 | 853.59 | 849.22 | 840.38 | 831.37 | 822.15
x1 = 0.4008 | 872.54 | 868.09 | 863.61 | 854.56 | 845.37 | 836
x1 = 0.4828 | 887.9 | 883.34 | 878.76 | 869.5 | 860.12 | 850.57
x1 = 0.5602 | 902.63 | 897.96 | 893.27 | 883.83 | 874.27 | 864.57
x1 = 0.6413 | 918.47 | 913.69 | 908.9 | 899.25 | 889.49 | 879.62
x1 = 0.7201 | 934.21 | 929.32 | 924.42 | 914.55 | 904.62 | 894.59
x1 = 0.8016 | 950.86 | 945.84 | 940.81 | 930.72 | 920.57 | 910.32
x1 = 0.8777 | 966.86 | 961.72 | 956.56 | 946.23 | 935.86 | 925.44
x1 = 0.9586 | 984.47 | 979.16 | 973.84 | 963.22 | 952.58 | 941.92
